According to patent US20250296938A1, “Compounds that Interact with the Ras Superfamily for the Treatment of Cancers, Inflammatory Diseases, Rasopathies, and Fibrotic Disease” (SHY Therapeutics, LLC, priority 2018, published 2025):

Legend:
[1] = tested on: TNF-α; assay: Mouse TNF alpha quantification assay, LPS-stimulated RAW 264.7 macrophages; assay type: cell-based; settings: RAW264.7, 10 μM, LPS (100 ng/ml) added concurrently, 5 hours, RAW 264.7, read-out: TNFα % Inhibition
Protocol: (§1) Cell lines: Abelson murine leukemia virus transformed macrophage cell line RAW 264.7 was purchased from ATCC and grown in complete DMEM-High Glucose medium supplemented with penicillin (100 U/mL), streptomycin (100 μg/mL), and 10% heat-inactivated FBS at 37° C. in a humidified incubator with 5% CO2.
(§2) Method: Cells were plated at 25000-40000 cells/well density in a 96-well plate. After a 3-hour incubation, macrophages were starved with DMEM plus 0.5% FBS overnight. The next day the small molecules to be tested were added to the cells in the final concentration of 30 μM (with 0.3% DMSO) 3 hours prior to LPS stimulation (100 ng/ml). After LPS stimulation cells were incubated at 37° C. for 16 h. Alternatively, compounds were also tested at 10 μM and LPS (100 ng/ml) was added concurrently and incubated 5 hours at 37° C. At the end of the incubation periods, culture medium was collected and production of LPS-induced TNF-α and IL-6 cytokine was measured using ELISA detection kits.
(§3) Sandwich ELISA: The ELISA Immunoassays Quantikine Mouse TNF-alpha (catalog number MTA00B) and IL6 (catalog number M6000B) were purchased from R&D Systems Inc., Minneapolis, MN. These 4.5 hours solid phase ELISAs were used to measure mouse TNF-α or IL-6 levels in macrophages culture supernatants. Assays were executed according to the manufacturer specifications.

[2] = tested on: IL-6; assay: Mouse IL6 quantification assay, LPS-stimulated RAW 264.7 macrophages; assay type: cell-based; settings: RAW264.7, 10 μM, LPS (100 ng/ml) added concurrently, 5 hours, RAW 264.7
Protocol: as §1, §2, §3

Work on `COc1cccc(-c2sc3nc(-c4nc(C)cn4C)nc(N[C@@H]4CC[C@H](OC)C4)c3c2C)c1F` [drawing 761] yielded an inhibition at 10 µM [1] of 0% and an inhibition at 10 µM [2] of 1 to 25%.

With `CO[C@H]1CC[C@@H](Nc2nc(-c3nc(C)cn3C)nc3sc(-c4cccc5[nH]ncc45)c(C)c23)C1` [drawing 762] the inhibition at 10 µM [1] was 26 to 50% and the inhibition at 10 µM [2] was 76 to 100%.

With `COCCn1ccnc1-c1nc(O)c2scc(-c3ccc(OCC(C)C)nc3)c2n1` [drawing 763] the inhibition at 10 µM [1] was 1 to 25% and the inhibition at 10 µM [2] was 26 to 50%.

For `CC(C)COc1ccc(-c2csc3c(O)nc(-c4nccn4Cc4ccccn4)nc23)cn1` [drawing 764], the inhibition at 10 µM [1] was 1 to 25% and the inhibition at 10 µM [2] was 76 to 100%.

`COc1cccc(Cn2ccnc2-c2nc(O)c3scc(-c4ccc(OCC(C)C)nc4)c3n2)c1` [drawing 765] was tested, and the inhibition at 10 µM [1] was 1 to 25% and the inhibition at 10 µM [2] was 76 to 100%.

Work on `CO[C@H]1CC[C@@H](Nc2nc(-c3nccn3C)nc(C(=O)N3CCc4c(O)cccc4C3)c2C)C1` [drawing 766] yielded an inhibition at 10 µM [1] of 1 to 25% and an inhibition at 10 µM [2] of 0%.

`CO[C@H]1C[C@@H](Nc2nc(-c3ccccn3)nc3sccc23)C1` [drawing 767] showed an inhibition at 10 µM [1] of 1 to 25% and an inhibition at 10 µM [2] of 1 to 25%.

Work on `CO[C@H]1C[C@@H](Nc2nc(-c3nccn3C)nc3sccc23)C1` [drawing 768] yielded an inhibition at 10 µM [1] of 1 to 25% and an inhibition at 10 µM [2] of 26 to 50%.

Compound `Cn1ccc(-c2sc3nc(-c4nccn4C)nc(O)c3c2-c2ccccc2)n1` [drawing 769] has an inhibition at 10 µM [1] of 1 to 25% and an inhibition at 10 µM [2] of 51 to 75%.

Compound `CO[C@H]1C[C@@H](Nc2nc(-c3nccn3C)nc3sc(-c4ccn(C)n4)c(-c4ccccc4)c23)C1` [drawing 770] has an inhibition at 10 µM [1] of 76 to 100% and an inhibition at 10 µM [2] of 76 to 100%.

In the case of `CO[C@H]1C[C@H](Nc2nc(-c3nccn3C)nc3sc(-c4ccn(C)n4)c(-c4ccccc4)c23)C1` [drawing 771], the inhibition at 10 µM [1] is reported as 76 to 100% and the inhibition at 10 µM [2] is reported as 76 to 100%.

With `CN(C)CCOCCNc1nc(-c2nccn2C)nc2sc(-c3ccn(C)n3)c(-c3ccccc3)c12` [drawing 772] the inhibition at 10 µM [1] was 26 to 50% and the inhibition at 10 µM [2] was 76 to 100%.

Work on `Cn1ccc(-c2sc3nc(-c4nccn4C)nc(N[C@H]4C[C@@H](O)C4)c3c2-c2ccccc2)n1` [drawing 773] yielded an inhibition at 10 µM [1] of 0% and an inhibition at 10 µM [2] of 26 to 50%.

Work on `CO[C@H]1C[C@@H](Nc2nc(-c3ncc[nH]3)nc3sc(-c4ccn(C)n4)c(-c4ccccc4)c23)C1` [drawing 775] yielded an inhibition at 10 µM [1] of 1 to 25% and an inhibition at 10 µM [2] of 76 to 100%.

`CO[C@H]1CC[C@@H](Nc2nc(-c3ncc[nH]3)nc3sc(-c4ccn(C)n4)c(-c4ccccc4)c23)C1` [drawing 776] was tested, and the inhibition at 10 µM [1] was 26 to 50% and the inhibition at 10 µM [2] was 76 to 100%.

With `CO[C@H]1CC[C@@H](Nc2nc(-c3nccn3C)nc3sc(-c4ccn(C(C)C)n4)c(-c4ccccc4)c23)C1` [drawing 777] the inhibition at 10 µM [1] was 76 to 100% and the inhibition at 10 µM [2] was 76 to 100%.

`COc1nc(-c2ccccn2)nc2c(-c3ccccn3)csc12` [drawing 778] showed an inhibition at 10 µM [1] of 1 to 25% and an inhibition at 10 µM [2] of 51 to 75%.

With `CO[C@H]1C[C@@H](Nc2nc(-c3nccn3C)nc3sc(-c4ccn(C)n4)c(C)c23)C1` [drawing 779] the inhibition at 10 µM [1] was 1 to 25% and the inhibition at 10 µM [2] was 76 to 100%.

Work on `CO[C@H]1CC[C@@H](Nc2nc(-c3nccn3C)nc3sc(-c4ccn(C)n4)c(C)c23)C1` [drawing 780] yielded an inhibition at 10 µM [1] of 1 to 25% and an inhibition at 10 µM [2] of 76 to 100%.

With `Cc1c(-c2ccn(C)n2)sc2nc(-c3nccn3C)nc(NCCCS(C)(=O)=O)c12` [drawing 781] the inhibition at 10 µM [1] was 1 to 25% and the inhibition at 10 µM [2] was 1 to 25%.

For `Cc1c(-c2ccn(C)n2)sc2nc(-c3nccn3C)nc(NCCCC(=O)N(C)C)c12` [drawing 782], the inhibition at 10 µM [1] was 1 to 25% and the inhibition at 10 µM [2] was 1 to 25%.

`Cc1c(-c2ccn(C)n2)sc2nc(-c3nccn3C)nc(NCCOC(=O)N(C)C)c12` [drawing 783] was tested, and the inhibition at 10 µM [1] was 26 to 50% and the inhibition at 10 µM [2] was 51 to 75%.

Compound `CO[C@H]1CC[C@@H](Nc2nc(-c3nccn3C)nc3sc(-c4ccn(C(C)C)n4)c(C)c23)C1` [drawing 784] has an inhibition at 10 µM [1] of 26 to 50% and an inhibition at 10 µM [2] of 51 to 75%.

Work on `CO[C@H]1C[C@@H](Nc2nc(-c3nccn3C)nc3sc(C(=O)NC(C)C)c(-c4ccccc4)c23)C1` [drawing 785] yielded an inhibition at 10 µM [1] of 0% and an inhibition at 10 µM [2] of 1 to 25%.
